Assay results published in US8951563B2, “Antibiotic drug delivery and potentiation” (Technion Research & Development Foundation Limited, priority 2009, dated 2015).

Tests used:
Type in all cases: cell-based
[1] = system: E. coli AB301, wild type (efflux+); experiment: FIC index with sub-MIC OAK, E. coli AB301; settings: sub-MIC C12K-7α8
Protocol: (§1) Bacteria were grown overnight in LB growth medium and diluted 10,000-fold in same medium.
(§2) Synergistic effect of the combinations was assessed by determination of the fractional inhibitory concentration (FIC) where FIC=(MIC OAK in combination with antibiotic)/(MIC OAK alone)+(MIC antibiotic in combination)/(MIC antibiotic alone). Synergy was determined for FIC 0.5.

E. coli U-16329 = experiment: Antibiotic MIC / chemo-sensitization checkerboard with OAK, E. coli U-16329; settings: for MIC: Escherichia coli, U16329, OAK: None; for FIC: antibiotic combined with C12K-7α8
Protocol: as §1
(§3) Inhibition of proliferation was determined by optical density measurements (620 nm) after incubation overnight at 37° C.
as §2

E. coli U-16327 = experiment: Antibiotic MIC / chemo-sensitization checkerboard with OAK, E. coli U-16327; settings: for MIC: Escherichia coli, U16327, OAK: None; for FIC: antibiotic combined with C12K-7α8
Protocol: as §1, §3, §2

[2] = system: E. coli N281, ribosomal mutation; experiment: FIC index with sub-MIC OAK, E. coli N281; settings: sub-MIC C12K-7α8
Protocol: as §1, §2

[3] = system: E. coli AG100A, ΔacrAB (efflux−); settings: sub-MIC C12K-7α8
Protocol: as §1, §2

E. coli 14384 = experiment: Antibiotic MIC / chemo-sensitization checkerboard with OAK, E. coli 14384; settings: for FIC: antibiotic combined with C12K-7α8; for MIC: Escherichia coli
Protocol: as §1, §3, §2

E. coli 14182 = experiment: Antibiotic MIC / chemo-sensitization checkerboard with OAK, E. coli 14182; settings: for FIC: antibiotic combined with C12K-7α8; for MIC: Escherichia coli, OAK: None
Protocol: as §1, §3, §2

[4] = system: E. coli AG100, wild type (efflux+); settings: sub-MIC C12K-7α8
Protocol: as §1, §2

Row | Compound | MIC (E. coli U-16329) | MIC (E. coli U-16327) | FIC [3] | Antibiotic MIC in presence of OAK (E. coli 14384; +1.7 μg/ml C12K-7α8 (¼ MIC)) | Antibiotic MIC in presence of OAK (E. coli 14384; +3.5 μg/ml C12K-7α8 (½ MIC)) | Antibiotic MIC in presence of OAK (E. coli 14384; +[…] C12K-7α8 (⅓ MIC)) | FIC (E. coli 14384) | Antibiotic MIC in presence of OAK (E. coli U-16329; +3.5 μg/ml C12K-7α8 (½ MIC)) | Antibiotic MIC in presence of OAK (E. coli U-16329; +[…] C12K-7α8 (⅓ MIC)) | FIC (E. coli U-16329) | Antibiotic MIC in presence of OAK (E. coli 14182; +1.7 μg/ml C12K-7α8 (¼ MIC)) | Antibiotic MIC in presence of OAK (E. coli 14182; +3.5 μg/ml C12K-7α8 (½ MIC)) | Antibiotic MIC in presence of OAK (E. coli 14182; +[…] C12K-7α8 (⅓ MIC)) | FIC (E. coli 14182) | Antibiotic MIC in presence of OAK (E. coli U-16327; +3.5 μg/ml C12K-7α8 (½ MIC)) | Antibiotic MIC in presence of OAK (E. coli U-16327; +[…] C12K-7α8 (⅓ MIC)) | FIC (E. coli U-16327) | FIC [4] | MIC (E. coli 14384; OAK: None) | Antibiotic MIC in presence of OAK (E. coli U-16327; +1.7 μg/ml C12K-7α8 (¼ MIC)) | other results
1 | CC[C@H]1OC(=O)[C@H](C)[C@@H](O[C@H]2C[C@@](C)(OC)[C@@H](O)[C@H](C)O2)[C@H](C)[C@@H](O[C@@H]2O[C@H](C)C[C@H](N(C)C)[C@H]2O)[C@](C)(OC)C[C@@H](C)C(=O)[C@H](C)[C@@H](O)[C@]1(C)O [Clarithromycin, clarithromycin] | 128 mg/L | 128 mg/L | 0.75 | – | – | – | – | – | – | – | – | – | – | – | – | – | – | – | – | – | FIC [1]: 0.56; FIC [2]: 1.0
2 | CC[C@H]1OC(=O)[C@H](C)[C@@H](O[C@H]2C[C@@](C)(OC)[C@@H](O)[C@H](C)O2)[C@H](C)[C@@H](O[C@@H]2O[C@H](C)C[C@H](N(C)C)[C@H]2O)[C@](C)(O)C[C@@H](C)C(=O)[C@H](C)[C@@H](O)[C@]1(C)O [Erythromycin, erythromycin] | 256 mg/L | 512 mg/L | 0.86 | 64 mg/L | 8 mg/L | 16 mg/L | 0.39 | 16 mg/L | 64 mg/L | 0.56 | 32 mg/L | 4 mg/L | 16 mg/L | 0.46 | 16 mg/L | 64 mg/L | 0.46 | 0.46 | – | – | FIC [1]: 0.56; FIC [2]: 1.0
3 | Cc1onc(-c2ccccc2)c1C(=O)N[C@@H]1C(=O)N2[C@@H]1SC(C)(C)[C@@H]2C(=O)O [Oxacillin, oxacillin] | > 512 mg/L | > 512 mg/L | 0.75 | >512 mg/L | >512 mg/L | >512 mg/L | – | 512 mg/L | >512 mg/L | – | >512 mg/L | >512 mg/L | >512 mg/L | – | 512 mg/L | >512 mg/L | – | 0.5 | > 512 mg/L | >512 mg/L | Antibiotic MIC in presence of OAK (E. coli U-16329; +1.7 μg/ml C12K-7α8 (¼ MIC)): >512 mg/L; MIC (E. coli 14182): > 512 mg/L
4 | CC1(C)S[C@@H]2[C@H](NC(=O)Cc3ccccc3)C(=O)N2[C@H]1C(=O)O [Penicillin G, penicillin G] | 256 mg/L | > 512 mg/L | 1.0 | >512 mg/L | >512 mg/L | >512 mg/L | – | 128 to 256 mg/L | 256 mg/L | 1 | >512 mg/L | >512 mg/L | >512 mg/L | – | 512 mg/L | >512 mg/L | – | 0.58 | > 512 mg/L | >512 mg/L | Antibiotic MIC in presence of OAK (E. coli U-16329; +1.7 μg/ml C12K-7α8 (¼ MIC)): 256 mg/L; MIC (E. coli 14182): > 512 mg/L
5 | CCN1CCN(C(=O)N[C@@H](C(=O)N[C@@H]2C(=O)N3[C@@H]2SC(C)(C)[C@@H]3C(=O)O)c2ccccc2)C(=O)C1=O [Piperacillin, piperacillin] | 256 mg/L | 256 mg/L | – | 256 to 512 mg/L | 128 mg/L | 256 to 512 mg/L | 0.63 | 64 mg/L | 128 mg/L | 0.75 | >512 mg/L | 64 mg/L | >512 mg/L | 0.63 | 64 mg/L | 128 to 256 mg/L | 0.63 | 0.75 | 256 to 512 mg/L | 256 mg/L | Antibiotic MIC in presence of OAK (E. coli U-16329; +1.7 μg/ml C12K-7α8 (¼ MIC)): 128 to 256 mg/L; MIC (E. coli 14182): 512 mg/L
6 | CO[C@H]1/C=C/O[C@@]2(C)Oc3c(C)c(O)c4c(O)c(c(/C=N/N5CCN(C)CC5)c(O)c4c3C2=O)NC(=O)/C(C)=C\C=C\[C@H](C)[C@H](O)[C@@H](C)[C@@H](O)[C@@H](C)[C@H](OC(C)=O)[C@@H]1C [Rifampin, rifampicin] | 16 mg/L | 8 to 16 mg/L | 0.75 | 1 mg/L | 0.03 mg/L | 0.06 to 0.13 mg/L | 0.31 | 1 mg/L | 2 mg/L | 0.46 | 4 mg/L | 0.25 mg/L | 2 mg/L | 0.46 | 0.25 mg/L | 1 mg/L | 0.38 | 0.46 | 8 mg/L | 2 mg/L | Antibiotic MIC in presence of OAK (E. coli U-16329; +1.7 μg/ml C12K-7α8 (¼ MIC)): 4 mg/L; MIC (E. coli 14182): 16 mg/L
7 | gentamicin [Gentamycin] | – | – | 1.0 | 4 mg/L | 2 mg/L | 2 to 4 mg/L | 1 | – | – | – | – | 64 to 128 mg/L | – | 1 | 1 to 2 mg/L | 2 mg/L | 0.75 | 1.0 | – | 4 mg/L | Antibiotic MIC (E. coli 14384; OAK: None): 4 mg/L; Antibiotic MIC (E. coli U-16327; OAK: None): 4 mg/L
